The results in this text go back to PubChem BioAssay (NCI).

Test in all cases: NCI tumour cell line growth inhibition, 48 h
Assay [1] deals with HOP-18 NSCLC.
For assay [2], the system named is DMS 114 small cell lung.
For assay [3], the system named is KM20L2 colon.
The test system of assay [4] is DMS 273 small cell lung.
In assay [5] the test system is SNB-78 CNS.
In assay [6] the test system is SN12K1 renal.
In assay [7] the test system is M19-MEL melanoma.
For assay [8], the system named is P388 leukemia.

“And” between values parts separate entries of the source, which are not always exact repeats. Identical values can stand only once.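 Compound exposure: 48 hours, 5 concentrations, 96-well plates. GI50 = concentration required for 50% inhibition of growth. The concentration for full growth arrest is given as TGI.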 Some results are limits rather than exact numbers.

In the case of `COc1ccc2[nH]cc(/C=C(/C)c3ccncc3)c2c1`, the TGI is above 100 µM in assay [1]; 7.19 µM and 6.35 µM in assay [2]; 8.67 µM in assay [3]; 19.6 µM and 10.5 µM in assay [4]; above 100 µM in assay [5]; 27.6 µM and > 100 µM in assay [6]. Also, the TGI in assay [7] is 32 µM and 21.5 µM; in assay [8], 9.68 µM. Moreover, the GI50 in assay [2] is 2.23 µM; in assay [3], 2.96 µM; in assay [4] it was 2.37 µM; in assay [5] it was 9.43 µM; in assay [6] it was 5.6 µM; in assay [7], 6.77 µM.
Regarding `COc1ccc2cc1Oc1ccc(cc1)C[C@H]1c3cc(c(OC)cc3CCN1C)Oc1c(O)c(OC)cc3c1[C@H](C2)N(C)CC3`, the TGI was 139 µM in assay [1]; 49.7 µM in assay [2]; 4.27 µM in assay [3]; 40.1 µM in assay [4]; 117 µM in assay [5]; 39.2 µM in assay [6]. Also, the TGI in assay [7] amounted to 43.4 µM; in assay [8], 19.8 µM.
Regarding `O=C1C=C[C@@H](COC2OC(CO)C(O)C(O)C2O)O1` (stereo not given in full), the TGI in assay [1] is above 100 µM; in assay [2] it was 14.2 µM and 28.5 µM; in assay [3], 38 µM; in assay [4], 13.9 µM and 39.6 µM; in assay [6] it was 28.9 µM and 29.2 µM; in assay [7], 16.3 µM and 26.8 µM. The GI50 in assay [2] was 3.73 µM; in assay [3] it was 14.4 µM; in assay [4], 2.44 µM; in assay [7], 3.8 µM.
As to `COC(=O)[C@@H](O)[C@](O)(CCC(C)C)C(=O)O[C@@H]1C(OC)=C[C@]23CCCN2CCc2cc4c(cc2[C@H]13)OCO4`, the TGI in assay [1] was 7.81 µM; in assay [2] it was 2.2 µM; in assay [3], 9.49 µM; in assay [4] it was 3.47 µM; in assay [5], 10.9 µM; in assay [6], 5.89 µM. The TGI in assay [7] was 4.16 µM; in assay [8] it was 1.16 µM.
